One assay concerns the target T1, Coagulation factor XII (Homo sapiens, UniProt P00748).
T1 sequence (P00748 whole entry): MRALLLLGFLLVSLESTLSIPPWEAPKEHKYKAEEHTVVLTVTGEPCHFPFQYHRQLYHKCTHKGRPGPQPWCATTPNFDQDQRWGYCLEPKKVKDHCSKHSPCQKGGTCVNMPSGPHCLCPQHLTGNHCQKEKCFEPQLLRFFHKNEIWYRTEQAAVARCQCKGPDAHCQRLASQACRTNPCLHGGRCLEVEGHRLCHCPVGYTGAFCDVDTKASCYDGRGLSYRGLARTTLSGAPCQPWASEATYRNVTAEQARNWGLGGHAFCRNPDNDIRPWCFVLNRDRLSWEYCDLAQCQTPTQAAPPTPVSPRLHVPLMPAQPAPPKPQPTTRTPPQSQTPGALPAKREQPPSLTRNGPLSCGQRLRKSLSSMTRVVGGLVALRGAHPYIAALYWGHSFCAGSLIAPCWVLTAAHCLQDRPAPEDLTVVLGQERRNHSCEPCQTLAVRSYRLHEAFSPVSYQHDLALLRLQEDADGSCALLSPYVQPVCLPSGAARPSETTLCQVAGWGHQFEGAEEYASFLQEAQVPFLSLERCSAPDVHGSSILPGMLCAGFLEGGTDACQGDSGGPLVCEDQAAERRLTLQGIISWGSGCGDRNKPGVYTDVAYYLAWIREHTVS
The experiment in a line: activated coagulation factor XII inhibitor potency, concentration-effect curve, cell-free (AID 716). Type of assay: functional.

Assay [1] has as its target DNA dC->dU-editing enzyme APOBEC-3G (Homo sapiens, UniProt Q9HC16). Type of assay: functional.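 Note: Dose-response counterscreen measuring inhibition of APOBEC3G DNA deaminase activity, run while confirming APOBEC3A inhibitors.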
For assay [2], the target named is DNA dC->dU-editing enzyme APOBEC-3A (Homo sapiens, UniProt P31941). Kind of assay: Dose Response confirmation of small molecule APOBEC3A DNA Deaminase Inhibitors via a fluorescence-based single-stranded DNA deaminase assay. [Related pubchem assays (depositor defined):AID493011, AID493024]. Type of assay: functional.
Sequence of DNA dC->dU-editing enzyme APOBEC-3A (P31941 whole entry): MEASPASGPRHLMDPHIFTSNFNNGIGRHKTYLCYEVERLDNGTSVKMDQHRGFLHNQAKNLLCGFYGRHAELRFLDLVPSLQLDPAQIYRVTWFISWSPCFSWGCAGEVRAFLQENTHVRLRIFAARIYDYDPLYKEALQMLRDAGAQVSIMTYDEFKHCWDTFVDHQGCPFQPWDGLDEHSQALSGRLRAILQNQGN
Assay [3] is described as follows: MIN6 cell viability loss – mouse insulinoma, cytotoxicity control, dose response (AID 2122).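 Note: confirmatory high-throughput counterscreen run to flag cytotoxic compounds.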 Type of assay: functional.
A short description of assay [4]: decrease of insulin promoter-GFP reporter – imaging, high-content screening, mouse beta cells (AID 1628). Type of assay: functional. Conditions: MIN6.
Assay [5] is described as follows: Vero E6 cell cytotoxicity, dose response, cytotoxicity control for non-replicating M. tuberculosis project, secondary assay (AID 492998). It counts as functional, VeroE6. The note with it: Vero C1008.
In another assay the target is Paired box protein Pax-8 (Homo sapiens, UniProt Q06710). Kind of assay: PAX8 transcriptional activity inhibition in RMG-I – RMG-I cells, luciferase, cherry-pick, dose response (AID 687027).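 Note: luciferase reporter driven by Pax8 target thyroperoxidase promoter measured by SteadyGlo luminescence.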 Type of assay: functional, cell-based.
Sequence of Paired box protein Pax-8 (Q06710 whole entry): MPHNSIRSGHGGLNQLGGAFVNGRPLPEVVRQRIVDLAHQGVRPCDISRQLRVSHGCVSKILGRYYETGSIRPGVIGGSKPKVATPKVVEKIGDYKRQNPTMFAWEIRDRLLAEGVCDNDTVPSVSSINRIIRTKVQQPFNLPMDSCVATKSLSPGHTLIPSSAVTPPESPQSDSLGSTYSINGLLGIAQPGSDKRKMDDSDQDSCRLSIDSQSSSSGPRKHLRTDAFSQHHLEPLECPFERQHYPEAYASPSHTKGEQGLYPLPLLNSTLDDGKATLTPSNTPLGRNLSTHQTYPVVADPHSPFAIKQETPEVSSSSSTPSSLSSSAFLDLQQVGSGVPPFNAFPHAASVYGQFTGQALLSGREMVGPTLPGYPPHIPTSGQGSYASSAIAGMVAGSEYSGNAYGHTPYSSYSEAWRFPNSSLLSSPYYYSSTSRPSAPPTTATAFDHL
Assay [6] can be described thus: THP-1 cell cytotoxicity, dose response, cytotoxicity control for non-replicating M. tuberculosis project (AID 489025). It counts as functional.
The target of a further assay is T2, Streptokinase A (Streptococcus pyogenes serotype M1, UniProt P10520).
T2 sequence (P10520 whole entry): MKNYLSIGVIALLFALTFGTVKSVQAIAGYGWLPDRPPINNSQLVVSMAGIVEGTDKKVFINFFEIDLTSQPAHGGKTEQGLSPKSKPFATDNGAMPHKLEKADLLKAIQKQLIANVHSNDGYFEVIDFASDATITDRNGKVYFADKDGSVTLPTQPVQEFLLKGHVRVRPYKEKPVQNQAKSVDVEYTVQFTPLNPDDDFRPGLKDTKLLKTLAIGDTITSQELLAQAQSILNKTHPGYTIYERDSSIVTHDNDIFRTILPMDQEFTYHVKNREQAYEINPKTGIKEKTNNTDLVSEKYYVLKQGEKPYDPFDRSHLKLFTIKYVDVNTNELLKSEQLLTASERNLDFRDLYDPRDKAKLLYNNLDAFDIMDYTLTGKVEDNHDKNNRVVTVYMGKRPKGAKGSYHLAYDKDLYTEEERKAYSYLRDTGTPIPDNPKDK
Kind of assay: viability-normalized secreted streptokinase activity reduction – plasminogen activation absorbance, OD405, dose response (AID 1914).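 Note: secreted streptokinase activity via plasminogen activation per viability signal from cell pellet.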 Type of assay: functional, Streptococcus pyogenes M1 GAS.

A further assay deals with Streptococcus. Kind of assay: GAS UMAA2166 growth inhibition – luminescence, BacTiterGlo, counter-screen for streptokinase expression inhibitor project, dose response (AID 1915).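 Note: potency for reduction of bacterial viability or growth.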 It counts as functional, organism-based. A general note: Counterscreens check selectivity or assay interference.
The nature of the next assay: cells. Type of assay: functional.
Assay [7] relates to Streptococcus sp. 'group A'. The experiment in a line: Streptococcus pyogenes SK(-)GAS viability under kanamycin – luminescence, BacTiterGlo, confirmation, counter-screen for streptokinase expression inhibitor project, dose response (AID 1900). It counts as functional, organism-based.
A short description of assay [8]: Luminescence Cell-Based Dose Retest to Confirm Inhibitors of Cancer Stem Cells. [Related pubchem assays (depositor defined):AID2717, AID2721]. Type of assay: functional. Conditions: Homo sapiens.
Assay [9] can be described thus: HepG2 cell cytotoxicity, dose response, cytotoxicity control for non-replicating M. tuberculosis project (AID 489018). Type of assay: functional. The note with it: Mycobacterium tuberculosis.
A short description of assay [10]: Trypanosoma cruzi growth suppression in host cells – NIH3T3 host cells, beta-gal luminescence, confirmation (AID 2044).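 Note: intracellular parasites grown in NIH/3T3 mouse fibroblasts as host cells; luminescent beta-galactosidase reporter signal from transgenic T. cruzi replicating inside host cells; inhibitors lower the luminescence signal.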 It counts as functional, cell-based.
Assay [11] in a line: loss of viability in HepG2 cells – cell-based, CellTiter-Glo, cherry-picked, cytotoxicity control for Shn3 inhibitor project, dose response (AID 624134). It counts as functional. A general note: In ATP-based viability assays light output follows the ATP content of the culture.
Assay [12] in a line: reduction of Shn3 3'UTR-driven luciferase in osteoblasts – cell-based, Clone20 osteoblasts, firefly luciferase, cherry-picked, dose response (AID 624132).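 Note: firefly luciferase luminescence from reporter carrying the Shn3 3'UTR in osteoblasts.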 It counts as functional.
The nature of assay [13]: NIH3T3 cell viability loss – ATP luminescence, mouse fibroblasts, counter-screen, dose response (AID 2010).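 Note: cells exposed to compound for about 90 hours before reading.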 Type of assay: functional, cell-based.
The nature of assay [14]: non-specific 3'UTR reporter inhibition in Clone20-Shn3RL – cell-based, Renilla luciferase, cherry-picked, counter-screen for Shn3 inhibitor project, dose response (AID 624133). Type of assay: functional.
In assay [15] the test system is HEK293. Kind of assay: inhibition of NOD1-driven NF-kB reporter – cell-based, luminescence, uHTS, primary screen (AID 1578). Type of assay: functional. Conditions: Homo sapiens.
The test system of assay [16] is HEK293. Kind of assay: NOD2 signaling inhibitors in MDP-stimulated cells, cell-based, uHTS, luminescence (AID 2001). It counts as functional. The note with it: Homo sapiens.
The nature of assay [17]: HEK-293T viability loss after treatment – luminescence, T-cell screen hits, cytotoxicity control for TCR NF-kB inhibitor project, dose response (AID 489026).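 Note: cells exposed to compound about 14 hours before the viability readout.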 Type of assay: functional, cell-based.
The subject of assay [18] is HEK293. Kind of assay: cells. It counts as functional, cell-based. The note with it: Homo sapiens.
The test system of assay [19] is HEK293. Kind of assay: cells. Type of assay: functional, cell-based. The note with it: Homo sapiens. This is another data set of the same source.
Assay [20] addresses Melanin-concentrating hormone receptor 1 (Homo sapiens, UniProt Q99705). The experiment in a line: Fluorescence-based counterscreen for antagonists of the G-protein coupled receptor 7 (GPR7): cell-based high throughput dose response assay to identify antagonists of the melanin-concentrating hormone receptor 1 (MCHR1). Type of assay: functional.
In assay [21] the target is Glucose-6-phosphate 1-dehydrogenase (Homo sapiens, UniProt P11413). The experiment in a line: inhibition of Homo sapiens G6PD, dose series – biochemical, fluorescence, selectivity assay for P. falciparum G6PD inhibitor project, dose response (AID 504792). Type of assay: functional.
Sequence of Glucose-6-phosphate 1-dehydrogenase (P11413 whole entry): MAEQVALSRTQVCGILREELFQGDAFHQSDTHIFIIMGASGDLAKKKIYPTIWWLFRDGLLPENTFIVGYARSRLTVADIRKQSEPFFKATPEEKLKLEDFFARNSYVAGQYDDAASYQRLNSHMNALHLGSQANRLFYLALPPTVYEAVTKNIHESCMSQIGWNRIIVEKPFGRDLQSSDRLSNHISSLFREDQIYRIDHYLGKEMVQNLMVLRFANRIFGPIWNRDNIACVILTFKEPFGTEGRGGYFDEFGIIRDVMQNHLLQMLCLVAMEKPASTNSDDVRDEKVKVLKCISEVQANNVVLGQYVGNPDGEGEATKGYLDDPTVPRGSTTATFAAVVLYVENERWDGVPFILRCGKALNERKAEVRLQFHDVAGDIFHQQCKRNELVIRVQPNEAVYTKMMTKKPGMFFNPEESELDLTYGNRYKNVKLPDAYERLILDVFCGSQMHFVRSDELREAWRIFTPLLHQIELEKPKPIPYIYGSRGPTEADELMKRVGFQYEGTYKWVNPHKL
A further assay has as its system Vero. The experiment in a line: mammalian cell viability reduction – secondary assay, cytotoxicity control for West Nile virus antiviral project, dose response (AID 1650). It counts as functional. Conditions: Chlorocebus sabaeus.

Active and inactive are the calls of the source.

Sequence of DNA dC->dU-editing enzyme APOBEC-3G (Q9HC16 whole entry): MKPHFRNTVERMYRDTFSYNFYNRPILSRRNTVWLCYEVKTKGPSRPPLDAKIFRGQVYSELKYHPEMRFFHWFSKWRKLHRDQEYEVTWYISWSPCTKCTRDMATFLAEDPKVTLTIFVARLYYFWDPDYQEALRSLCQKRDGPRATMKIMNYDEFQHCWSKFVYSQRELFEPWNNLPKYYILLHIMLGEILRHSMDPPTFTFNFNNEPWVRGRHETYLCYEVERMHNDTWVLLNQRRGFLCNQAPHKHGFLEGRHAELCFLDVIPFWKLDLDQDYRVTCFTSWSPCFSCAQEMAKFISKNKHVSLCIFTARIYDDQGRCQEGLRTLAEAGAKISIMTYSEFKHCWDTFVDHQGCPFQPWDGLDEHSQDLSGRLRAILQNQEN
Sequence of Melanin-concentrating hormone receptor 1 (Q99705 whole entry): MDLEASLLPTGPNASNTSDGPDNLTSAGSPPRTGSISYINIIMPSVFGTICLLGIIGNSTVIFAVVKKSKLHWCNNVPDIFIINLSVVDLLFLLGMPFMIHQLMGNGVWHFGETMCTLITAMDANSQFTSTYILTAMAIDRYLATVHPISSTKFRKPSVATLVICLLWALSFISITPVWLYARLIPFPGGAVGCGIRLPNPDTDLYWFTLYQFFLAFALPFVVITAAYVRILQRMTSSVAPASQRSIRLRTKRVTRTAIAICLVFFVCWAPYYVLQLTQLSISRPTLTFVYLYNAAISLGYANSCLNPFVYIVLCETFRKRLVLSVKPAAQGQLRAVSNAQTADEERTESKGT

A word on the IC50: it is the point on the concentration scale where inhibition reaches its midpoint. For `CC(=O)NCC(=O)OCC(=O)Nc1ccc(C(C)=O)cc1`, the IC50 on Coagulation factor XII is > 50 µM (inactive).

With `CCOC(=O)/C(CCCN(CC)CC)=N\O`, the IC50 in assay [1] was 1.26 µM (active); in assay [2], 1.35 µM (active).

For the molecule `CCOC(=O)N1CCC(N(C(=O)Nc2ccc(Cl)c(Cl)c2)C(C)CC)CC1` (stereo not drawn), the IC50 was 2.45 µM (active) in assay [3] and 2.7 µM (active) in assay [4].

Broadly, the CC50 is the concentration giving 50% cytotoxicity. By AC50 is commonly meant the concentration giving half of the maximal activity seen. A word on the EC50: it is the concentration at which the effect is half-maximal. For `O=C(NC12CC3CC(CC(C3)C1)C2)c1ccc([N+](=O)[O-])o1`, the figures for the CC50 in assay [5], in [6] and in assay [9] were 14.6 µM (active), 12.4 µM (active) and 10.4 µM (active), respectively. The AC50 at Paired box protein Pax-8 is 4.39 µM (active); in assay [8] it was 5.23 µM (active). Besides, the EC50 at Streptokinase A is > 150 µM (not active); with Streptococcus it was 7.69 µM (active); in assay [7], 1.2 µM (active). The IC50 in the assay “cells” was 7.14 µM (active).

Take `CC(C)(C)c1ccc(CN(Cc2ccccc2)C(c2ccccn2)c2nnnn2C(C)(C)C)cc1` (stereo not drawn): the EC50 in assay [10] is 1.76 µM (active); in assay [13], > 60 µM (not active). Besides, the values for the AC50 in assay [11], in assay [12] and in assay [14] were 67.9 µM (active), 13.5 µM (active) and 24.2 µM (active), respectively. For the same molecule, the IC50 in [3] is 3.84 µM (active); in assay [4], 3.07 µM (active).

Consider `O=C(c1ccco1)N1CCN(S(=O)(=O)c2ccc(Oc3ccccc3)cc2)CC1`, for which the IC50 at Coagulation factor XII was > 50 µM (inactive).

Consider `O=C(Nc1ccc(Cc2ccncc2)cc1)c1ccc(S(=O)(=O)N2CCCC2)cc1`, for which the EC50 with HEK293 [15] is 2.66 µM (active). In addition, the IC50 is 5.81 µM (active) with HEK293 [16], 33.4 µM (inactive) in assay [17], 13.6 µM (active) in the assay on HEK293 [18] and 4.59 µM (active) in the assay with HEK293 [19].

`CN1CCCN(S(=O)(=O)c2ccccc2)CC1`: the IC50 in assay [1] was 5.93 µM (active); in assay [2], 4.85 µM (active).

Regarding `Oc1nc(-c2ccccn2)nc2ccccc12`, the CC50 is 19.6 µM (active) in [5], > 40 µM (active) in [6] and > 20 µM (active) in assay [9]. Also, the IC50 in “cells” was 3.56 µM (active).

Take `Cc1cc([N+](=O)[O-])cc(C)c1OCC(=O)N/N=C/c1ccc(OC(=O)c2ccccc2)cc1`: the IC50 in [20] is on record as > 43.8 µM (not active).

For the molecule `CCN1CCN(c2ccc(S(=O)(=O)N3CCOCC3)cc2NC(=O)C(C)Oc2ccc(Cl)cc2)CC1` (stereo not drawn), the figures for the IC50 in assay [1] and in [2] were 14.7 µM (active) and 9.56 µM (active), respectively.

Take `O=C(CCC1COc2ccccc2O1)NCc1ccco1` (stereo not drawn): the IC50 on Coagulation factor XII is > 50 µM (inactive).

As for `CCOc1ccccc1C=NNC(=O)CCCCC(=O)NN=Cc1ccccc1OCC`, in assay [21], the IC50 was > 80 µM (inactive).

For `COc1ccc(-n2c(Cc3cccs3)nnc2SCC(=O)Nc2ccc3c(c2)OCCO3)cc1`, at Coagulation factor XII, the IC50 was > 50 µM (inactive).

For `CC(=O)[C@@]1(O)C(C)CC2C3C=C(C)C4=Cc5c(cnn5-c5ccccc5)C[C@]4(C)C3C(O)C[C@@]21C` (stereo partly drawn), the concentration giving a half-maximal response (EC50) on Streptokinase A was 2.97 µM (active); with Streptococcus it was > 150 µM (not active); in [7], 5.57 µM (active). The IC50 is > 16 µM (inactive) in [3] and < 0.25 µM (active) in [4]. Besides, the AC50 in [8] was 1.15 µM (active). For the same molecule, in the assay with Vero, the CC50 was > 100 µM (active).

Regarding `Nn1c(SCC(=O)Nc2ccc3c(c2)OCCO3)nnc(CCC(=O)O)c1=O`, the IC50 in assay [1] was 8.47 µM (active); in assay [2] it was 9.11 µM (active).

The record behind these values is ChEMBL document CHEMBL1201862, “PubChem BioAssay data set” (2004).
